Patent US20170189417A1, “PHARMACEUTICAL COMPOSITION FOR TREATING COLORECTAL CANCER” (MA SHEN KAI RUEI CO., LTD., priority 2015, published 2017)
Entries after “also recorded” stand apart in the source; their conditions may differ.

Key:
[1] = tested on: human colorectal-cancer cells SW-480; assay: MTT ex vivo survival assay, SW-480; assay type: cell-based; conditions: SW-480 cell line; for half-maximal inhibitory concentration (IC50): isolated agents, stated in words only
Experimental: (§1) The Antroquinonol B (AnQB) and Zhankuic acid D (ZhAD) separately isolated from the Extraction A of Example 1 were added into the culture media of human colorectal-cancer cells, HT-29 or SW-480, to test for tumor cell survival by using anti-cancer drug screen model. This survival assay was carried out with the widely known MTT (3-[4,5-dimethylthiazol-2-yl]2,5-diphenyltetrazolium bromide) assay.
(§2) HT-29 cell line (purchased from ATCC) is a human colorectal adenocarcinoma cell line with epithelial morphology. These cells are sensitive to the chemotherapeutic drugs 5-fluorouracil and oxaliplatin, which are standard treatment options for colorectal cancer. In addition to being a xenograft tumor model for colorectal cancer, the HT-29 cell line is also used as an in-vitro model to study survival assay. And the other one, SW-480 is Dukes' type B, colorectal adenocarcinoma which is a difficult tumor with a low survival rate.
(§3) The human colorectal-cancer cells, HT-29 and SW-480 were cultivated in media containing fetal calf serum for 18 hours. The proliferated cells were washed once with PBS, then treated with 1× trypsin-EDTA and centrifuged at 1200 rpm for 45 minutes. The supernatant was discarded and the cell pellet was re-suspended in […] of fresh culture medium by gently shaking. The cells were placed in a 96-well plate.
(§4) Subsequently, the plates were read on an ELISA reader to determine the survival rates. The half maximal inhibitory concentration (IC50) values were calculated and results of ex vivo survival assay were thus obtained.
(§5) By using the same manner as the method described above, respectively human colorectal cancer cell line HT-29 and Sw-480 was cultured. After then, the pharmaceutical compositions A˜F of the present invention was applied separately, and then MTT assay for each sample was measured to assess the inhibition effectiveness of various cancer cell activity while using pharmaceutical compositions A˜F of the present invention.

[2] = tested on: human colorectal-cancer cells HT-29; assay: MTT ex vivo survival assay, HT-29; assay type: cell-based; conditions: HT-29 cell line; for half-maximal inhibitory concentration (IC50): isolated agents, stated in words only
Experimental: as §1, §2, §3, §4, §5

| SMILES | tumor cell survival rate / growth inhibition (MTT assay) [1] | half-maximal inhibitory concentration (IC50) [1] | tumor cell survival rate / growth inhibition (MTT assay) [2] | half-maximal inhibitory concentration (IC50) [2] |
| --- | --- | --- | --- | --- |
| C=C(CC[C@@H](C(=O)O)[C@H]1CC[C@@]2(C)C3=CC[C@H]4C(C)(C)[C@@H](O)CC[C@]4(C)C3=CC[C@]12C)C(C)C | can inhibit the growth of colorectal cancer cell; also recorded: can decrease the survival rates | relatively low | can inhibit the growth of colorectal cancer cell; also recorded: can decrease the survival rates | relatively low |
| COC1=C(OC)[C@H](O)[C@H](C/C=C(\C)CC/C=C(/C)C/C=C/C(C)(C)O)[C@@H](C)C1=O [Antroquinonol B] | can inhibit the growth of colorectal cancer cell; also recorded: can decrease the survival rates | relatively low | can inhibit the growth of colorectal cancer cell; also recorded: can decrease the survival rates | relatively low |
